Reference: ChEMBL document CHEMBL5230112, “Covalent inhibitors of GAPDH: From unspecific warheads to selective compounds” (Eur J Med Chem, 2020)
Each block holds one compound with its values, some of them ahead of it.

What was measured:
Saccharomyces cerevisiae = assay: Irreversible inhibition of yeast GAPDH holoenzyme
[1] = molecular target: T1, Glyceraldehyde-3-phosphate dehydrogenase (Homo sapiens, UniProt P04406); assay: Irreversible inhibition of GAPDH (unknown origin) assessed as ratio of Kinact/Ki
Target sequence in this assay (P04406 2-335 limits assumed): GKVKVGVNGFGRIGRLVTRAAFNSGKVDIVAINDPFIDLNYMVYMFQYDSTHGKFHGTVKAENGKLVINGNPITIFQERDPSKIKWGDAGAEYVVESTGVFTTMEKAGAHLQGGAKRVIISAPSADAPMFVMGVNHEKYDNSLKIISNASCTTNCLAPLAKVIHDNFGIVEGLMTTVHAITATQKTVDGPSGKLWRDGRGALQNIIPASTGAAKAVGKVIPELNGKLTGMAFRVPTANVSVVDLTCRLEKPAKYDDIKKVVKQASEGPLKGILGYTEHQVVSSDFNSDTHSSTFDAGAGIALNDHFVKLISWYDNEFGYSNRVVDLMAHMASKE

[2] = molecular target: T1, Glyceraldehyde-3-phosphate dehydrogenase; assay: Inhibition of GAPDH (unknown origin) measured after 1 hr
Target sequence in this assay (P04406 whole entry): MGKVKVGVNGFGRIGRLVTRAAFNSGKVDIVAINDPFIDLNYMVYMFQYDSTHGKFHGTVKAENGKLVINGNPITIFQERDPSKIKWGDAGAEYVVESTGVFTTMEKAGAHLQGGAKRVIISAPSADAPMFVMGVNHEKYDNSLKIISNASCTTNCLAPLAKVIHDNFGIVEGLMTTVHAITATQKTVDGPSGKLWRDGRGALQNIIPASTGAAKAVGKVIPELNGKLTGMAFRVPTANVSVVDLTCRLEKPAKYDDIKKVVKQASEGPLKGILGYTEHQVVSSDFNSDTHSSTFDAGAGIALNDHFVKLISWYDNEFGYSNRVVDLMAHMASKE

[3] = molecular target: Glyceraldehyde-3-phosphate dehydrogenase (Oryctolagus cuniculus) (UniProt P46406); assay: Inhibition of rabbit muscle GAPDH at 0.5 mM incubated for 24 hrs relative to control
[4] = molecular target: T1, Glyceraldehyde-3-phosphate dehydrogenase; assay: Inhibition of human GAPDH
Target sequence in this assay (P04406 2-335 limits assumed): as the sequence (P04406 2-335 limits assumed) above

[5] = molecular target: T1, Glyceraldehyde-3-phosphate dehydrogenase; assay: Irreversible inhibition of GAPDH (unknown origin) assessed as ratio of Kinact/Ki at fast phase
Target sequence in this assay (P04406 2-335 limits assumed): as above

[6] = molecular target: T1, Glyceraldehyde-3-phosphate dehydrogenase; assay: Irreversible inhibition of GAPDH (unknown origin) assessed as ratio of Kinact/Ki at slow phase
Target sequence in this assay (P04406 2-335 limits assumed): as above

Chain of Glyceraldehyde-3-phosphate dehydrogenase (Oryctolagus cuniculus) (P46406 whole entry, looked up): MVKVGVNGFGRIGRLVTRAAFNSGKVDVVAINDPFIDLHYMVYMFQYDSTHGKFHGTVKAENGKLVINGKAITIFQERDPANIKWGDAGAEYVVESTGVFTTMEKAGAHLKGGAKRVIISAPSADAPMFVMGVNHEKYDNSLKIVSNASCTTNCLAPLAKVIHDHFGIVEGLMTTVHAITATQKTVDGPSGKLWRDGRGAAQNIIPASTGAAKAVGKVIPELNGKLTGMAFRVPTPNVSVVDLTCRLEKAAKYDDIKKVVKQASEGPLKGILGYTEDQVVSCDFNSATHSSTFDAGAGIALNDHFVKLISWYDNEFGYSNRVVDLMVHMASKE

Compound: O=C(CCl)P(=O)(O)O
K (Saccharomyces cerevisiae): 2.8 10^4/M/s

Compound: C=CC(C)=O
Ratio [1]: 128 M⁻¹ s⁻¹

Compound: O=C(O)/C=C/C(=O)O
inhibition [3]: 20%

Compound: C=CC#N
Ratio [1]: 9.2 M⁻¹ s⁻¹

Compound: O=C(CBr)P(=O)(O)O
K [4]: 3.5 10^4/M/s | K (Saccharomyces cerevisiae): 5.4 10^4/M/s

Second part, the compound after the results:

IC50 [2]: 50 µM
Compound: CCCCCC(O)/C=C/C=O (stereo not given) [4-HYDROXYNON-2-ENAL]

IC50 [2]: 39.1 µM
Compound: CCC(O)/C=C/C=O (stereo not given)

Ratio [5]: 18.3 M⁻¹ s⁻¹ | Ratio [6]: 10.9 M⁻¹ s⁻¹
Compound: COC(=O)/C=C/C(=O)OC
